Measurements published in ChEMBL document CHEMBL5029173, “Differential BET Bromodomain Inhibition by Dihydropteridinone and Pyrimidodiazepinone Kinase Inhibitors” (J Med Chem, 2021).
Active and inactive are the calls of the source. No cut-off for these calls is given here.

Columns and labels:
[1] = target: Serine/threonine-protein kinase PLK1 (Homo sapiens) (UniProt P53350); conditions: MM1.S, dose 30-100 nM, time 6.0 hrs
[2] = tested on: MM1.S; experiment: Inhibition of cell growth in human MM1.S cells incubated for 72 hrs by CellTiter-blue reagent based assay; assay type: functional
[3] = target: T1, Bromodomain-containing protein 4 (Homo sapiens, UniProt O60885)
Description: Binding affinity to recombinant human N-terminal hexaHis-tagged BRD4 expressed in Escherichia coli BL21 (DE3) cells assessed as change in melting temperature by DSF assay

[4] = target: T1, Bromodomain-containing protein 4; experiment: Binding affinity to recombinant human N-terminal hexaHis-tagged BRD4 expressed in Escherichia coli BL21 (DE3) cells by qPCR assay
[5] = target: T2, Bromodomain testis-specific protein (Homo sapiens, UniProt Q58F21); experiment: Binding affinity to recombinant human N-terminal hexaHis-tagged BRDT expressed in Escherichia coli BL21 (DE3) cells by ITC analysis
[6] = tested on: HEK-293T; experiment: Inhibition of cell growth in HEK293T cells incubated for 72 hrs by CellTiter-blue reagent based assay; assay type: functional; conditions: Homo sapiens
[7] = target: T2, Bromodomain testis-specific protein
Description: Binding affinity to recombinant human N-terminal hexaHis-tagged BRDT expressed in Escherichia coli BL21 (DE3) cells assessed as change in melting temperature by DSF assay

[8] = target: T1, Bromodomain-containing protein 4; experiment: Binding affinity to recombinant human N-terminal hexaHis-tagged BRD4 expressed in Escherichia coli BL21 (DE3) cells by ITC analysis
[9] = target: T2, Bromodomain testis-specific protein; experiment: Binding affinity to recombinant human N-terminal hexaHis-tagged BRDT expressed in Escherichia coli BL21 (DE3) cells by MST assay
[10] = target: T2, Bromodomain testis-specific protein; experiment: Binding affinity to recombinant human N-terminal hexaHis-tagged BRDT expressed in Escherichia coli BL21 (DE3) cells by qPCR assay
[11] = target: T1, Bromodomain-containing protein 4; experiment: Binding affinity to recombinant human N-terminal hexaHis-tagged BRD4 expressed in Escherichia coli BL21 (DE3) cells by MST assay

Chain of Serine/threonine-protein kinase PLK1 (Homo sapiens) (P53350 whole entry): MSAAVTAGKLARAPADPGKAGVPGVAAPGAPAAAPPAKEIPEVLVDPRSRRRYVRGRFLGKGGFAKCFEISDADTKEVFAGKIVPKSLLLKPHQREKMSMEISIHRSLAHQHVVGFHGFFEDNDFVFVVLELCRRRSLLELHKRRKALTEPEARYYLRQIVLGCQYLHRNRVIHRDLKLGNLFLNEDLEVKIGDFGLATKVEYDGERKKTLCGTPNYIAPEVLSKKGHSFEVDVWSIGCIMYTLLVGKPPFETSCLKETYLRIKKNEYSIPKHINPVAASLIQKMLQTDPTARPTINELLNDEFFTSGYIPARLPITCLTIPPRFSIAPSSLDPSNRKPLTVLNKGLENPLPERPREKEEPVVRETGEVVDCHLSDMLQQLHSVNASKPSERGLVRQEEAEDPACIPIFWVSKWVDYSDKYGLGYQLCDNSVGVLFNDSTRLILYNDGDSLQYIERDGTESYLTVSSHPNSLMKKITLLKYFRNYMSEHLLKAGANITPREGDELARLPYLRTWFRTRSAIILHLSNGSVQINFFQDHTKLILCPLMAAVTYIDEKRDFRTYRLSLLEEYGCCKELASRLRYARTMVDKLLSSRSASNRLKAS

| SMILES | inhibition [1] | IC50 [2] | ΔTm [3] | Kd [4] | Kd [5] | IC50 [6] | ΔTm [7] | Kd [8] | Kd [9] | Kd [10] | Kd [11] |
| --- | --- | --- | --- | --- | --- | --- | --- | --- | --- | --- | --- |
| C[C@@H](Oc1cc(-n2cnc3ccc(CN4CCN(C)CC4)cc32)sc1C(N)=O)c1ccccc1C(F)(F)F | Active | – | – | – | – | – | – | – | – | – | – |
| Cc1cnc(Nc2ccc(C(=O)NC3CCN(C)CC3)c(F)c2)nc1Nc1ccc(Cl)c(NS(=O)(=O)C(C)(C)C)c1 | – | 26 nM | 13.5 °C | 12 nM | 59 nM | 140 nM | 11.9 °C | 54 nM | – | – | – |
| CC[C@@H]1C(=O)N(C)c2cnc(Nc3ccc(C(=O)N[C@H]4CC[C@H](N5CCN(CC6CC6)CC5)CC4)cc3OC)nc2N1C(C)C [VOLASERTIB] | Active | 4.5 nM | – | 77 nM | 1700 nM | 1.1 nM | 5 °C | 317 nM | 1030 nM | 113 nM | 169 nM |
| COc1cc(C(=O)N2CCC(N3CCN(C)CC3)CC2)ccc1Nc1ncc2c(n1)N(C)c1ccccc1C(=O)N2C | inactive | 530 nM | – | – | – | 2800 nM | 3.8 °C | – | – | – | – |
| CCOc1cc(N2CCC(O)CC2)ccc1Nc1ncc2c(n1)N(C)c1ccccc1C(=O)N2C | – | – | – | 205 nM | 4200 nM | > 10000 nM | 2.9 °C | 735 nM | 3500 nM | 675 nM | 800 nM |
| Cc1sc2c(c1C)C(c1ccc(Cl)cc1)=N[C@@H](CC(=O)OC(C)(C)C)c1nnc(C)n1-2 | inactive | 33 nM | – | – | – | – | – | – | – | – | – |
| CCOc1cc(C(=O)N2CCC(N3CCN(C)CC3)CC2)ccc1Nc1ncc2c(n1)N(C1CCCC1)c1ccccc1C(=O)N2C | – | 280 nM | 7.3 °C | 69 nM | 2100 nM | > 10000 nM | 2.3 °C | 213 nM | 1600 nM | 500 nM | 205 nM |
